US10138247B2, “7-(morpholin-4-yl)pyrazole[1,5-A]pyrimidine derivatives as PI3 kinase inhibitors” (priority 2015, dated 2018)
pIC50: −log10 of the molar value. Like-named read-outs stand apart in the source and are kept apart here.

Columns and labels:
PI3Kα = target: T1, PI3Kα (Homo sapiens, UniProt P42336); experiment: PI3K kinases inhibition in vitro (ADP-Glo), PI3Kα; format: biochemical
T1 construct: purchased Carna Biosciences
Method: (§1) Tested compounds were dissolved in 100% DMSO, and thus obtained solutions were serially diluted in 1× reaction buffer. Recombinant kinase was diluted in a reaction mixture comprising 5× reaction buffer, substrate (1 mM sodium diacetate 4,5-bisphosphate phosphatydylinositol (PIP2) solution in 40 mM Tris buffer), and water. To the wells in a 96-wells plate, 5 μl of compounds solutions and 15 μl of the kinase solution in the reaction mixture were added. To initiate interaction of tested chemical compounds with the enzyme, the plate was incubated for 10 minutes at suitable temperature in a plate thermostat with orbital shaking at 600 rpm. Negative control wells contained all above reagents except tested compound and kinase, and positive control wells contained all above reagents except tested compounds. Enzymatic reaction was initiated by adding 5 μl of 150 μM ATP solution, subsequently the plate was incubated for 1 hour at 25° C. or 30° C. (depending on PI3K isoform tested) in plate thermostat with orbital shaking of the plate contents at 600 rpm. Reaction conditions are presented below in Table 12.
(§2) Detection of ADP formed in the enzymatic reaction was then performed using ADP-Glo Kinase Assay (Promega). To the wells of a 96-well plate 25 μl of ADP-Glo Reagent were added, and the plate was incubated for 40 minutes at 25° C. in a plate thermostat with orbital shaking at 600 rpm. Then to the wells of 96-well plate 50 μl of Kinase Detection Reagent were added and the plate was incubated for 40 minutes at 25° C. in a plate thermostat with orbital shaking at 600 rpm. After incubation time, luminescence intensity in a well was measured by Victor Light luminometer (Perkin Elmer, Inc.).
(§3) IC50 values were determined on the basis of luminescence intensity measurements in wells containing tested compounds at different concentrations and in control wells. These values were calculated with Graph Pad 5.03 software by fitting the curve using non-linear regression. Each compound was tested at least in quadruplicates (4 wells) on two 96-well plates using at least 4 wells of each of the controls.

PI3Kδ = target: T2, PI3Kδ (Homo sapiens, UniProt O00329); experiment: PI3K kinases inhibition in vitro (ADP-Glo), PI3Kδ; format: biochemical
T2 construct: purchased Merck Millipore
T2 sequence (O00329 whole entry): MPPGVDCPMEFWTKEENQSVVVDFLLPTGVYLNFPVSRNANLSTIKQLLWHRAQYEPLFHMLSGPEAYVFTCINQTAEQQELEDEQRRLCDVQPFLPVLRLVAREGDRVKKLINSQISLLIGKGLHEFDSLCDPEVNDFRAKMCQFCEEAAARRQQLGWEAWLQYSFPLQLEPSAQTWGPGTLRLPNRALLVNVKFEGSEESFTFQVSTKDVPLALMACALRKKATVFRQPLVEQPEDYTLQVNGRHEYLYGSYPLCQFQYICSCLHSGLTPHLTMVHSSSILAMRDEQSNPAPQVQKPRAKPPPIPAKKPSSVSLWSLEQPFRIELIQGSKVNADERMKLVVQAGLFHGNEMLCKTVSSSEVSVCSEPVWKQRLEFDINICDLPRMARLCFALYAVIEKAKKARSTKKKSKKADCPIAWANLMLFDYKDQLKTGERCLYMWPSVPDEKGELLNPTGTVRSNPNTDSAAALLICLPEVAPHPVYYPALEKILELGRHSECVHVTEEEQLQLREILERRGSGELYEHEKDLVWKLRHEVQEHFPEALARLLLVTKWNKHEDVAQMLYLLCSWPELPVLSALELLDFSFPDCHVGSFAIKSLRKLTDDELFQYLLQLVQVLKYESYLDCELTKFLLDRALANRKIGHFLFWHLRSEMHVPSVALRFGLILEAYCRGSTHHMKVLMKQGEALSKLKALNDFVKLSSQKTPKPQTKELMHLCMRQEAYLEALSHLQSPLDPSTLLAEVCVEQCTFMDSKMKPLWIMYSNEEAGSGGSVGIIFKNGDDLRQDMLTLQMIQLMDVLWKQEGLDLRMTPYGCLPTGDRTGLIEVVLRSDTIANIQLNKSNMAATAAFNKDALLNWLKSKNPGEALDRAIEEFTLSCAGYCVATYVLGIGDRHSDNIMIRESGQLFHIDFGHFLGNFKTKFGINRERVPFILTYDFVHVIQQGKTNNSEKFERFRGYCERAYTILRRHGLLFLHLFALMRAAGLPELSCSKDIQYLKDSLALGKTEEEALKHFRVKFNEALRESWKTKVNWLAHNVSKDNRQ
T2 sequence (P27986 whole entry, further chain): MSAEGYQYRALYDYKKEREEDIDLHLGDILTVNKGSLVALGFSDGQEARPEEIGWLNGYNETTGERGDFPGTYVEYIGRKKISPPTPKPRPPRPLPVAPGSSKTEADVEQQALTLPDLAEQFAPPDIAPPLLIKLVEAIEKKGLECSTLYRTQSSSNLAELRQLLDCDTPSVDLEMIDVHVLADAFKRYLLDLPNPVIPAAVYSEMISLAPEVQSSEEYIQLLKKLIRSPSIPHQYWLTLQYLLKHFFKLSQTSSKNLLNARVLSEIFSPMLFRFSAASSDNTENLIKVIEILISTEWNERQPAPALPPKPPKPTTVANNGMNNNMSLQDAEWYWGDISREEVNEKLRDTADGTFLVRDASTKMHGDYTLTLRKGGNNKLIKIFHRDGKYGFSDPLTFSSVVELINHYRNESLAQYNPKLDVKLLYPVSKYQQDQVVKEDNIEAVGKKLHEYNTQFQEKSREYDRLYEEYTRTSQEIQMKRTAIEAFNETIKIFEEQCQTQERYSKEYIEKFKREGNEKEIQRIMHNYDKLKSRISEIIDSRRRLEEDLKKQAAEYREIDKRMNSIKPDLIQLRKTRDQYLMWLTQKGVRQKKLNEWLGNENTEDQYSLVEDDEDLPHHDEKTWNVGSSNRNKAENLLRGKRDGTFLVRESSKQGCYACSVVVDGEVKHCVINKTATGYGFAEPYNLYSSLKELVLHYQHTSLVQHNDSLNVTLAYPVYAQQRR
Method: as §1, §2, §3

[1] = averaged, recombinant kinase, 25° C., 1 h, PIP2 30 μM, read-out: PI3Kδ IC50

T1 sequence (P42336 whole entry): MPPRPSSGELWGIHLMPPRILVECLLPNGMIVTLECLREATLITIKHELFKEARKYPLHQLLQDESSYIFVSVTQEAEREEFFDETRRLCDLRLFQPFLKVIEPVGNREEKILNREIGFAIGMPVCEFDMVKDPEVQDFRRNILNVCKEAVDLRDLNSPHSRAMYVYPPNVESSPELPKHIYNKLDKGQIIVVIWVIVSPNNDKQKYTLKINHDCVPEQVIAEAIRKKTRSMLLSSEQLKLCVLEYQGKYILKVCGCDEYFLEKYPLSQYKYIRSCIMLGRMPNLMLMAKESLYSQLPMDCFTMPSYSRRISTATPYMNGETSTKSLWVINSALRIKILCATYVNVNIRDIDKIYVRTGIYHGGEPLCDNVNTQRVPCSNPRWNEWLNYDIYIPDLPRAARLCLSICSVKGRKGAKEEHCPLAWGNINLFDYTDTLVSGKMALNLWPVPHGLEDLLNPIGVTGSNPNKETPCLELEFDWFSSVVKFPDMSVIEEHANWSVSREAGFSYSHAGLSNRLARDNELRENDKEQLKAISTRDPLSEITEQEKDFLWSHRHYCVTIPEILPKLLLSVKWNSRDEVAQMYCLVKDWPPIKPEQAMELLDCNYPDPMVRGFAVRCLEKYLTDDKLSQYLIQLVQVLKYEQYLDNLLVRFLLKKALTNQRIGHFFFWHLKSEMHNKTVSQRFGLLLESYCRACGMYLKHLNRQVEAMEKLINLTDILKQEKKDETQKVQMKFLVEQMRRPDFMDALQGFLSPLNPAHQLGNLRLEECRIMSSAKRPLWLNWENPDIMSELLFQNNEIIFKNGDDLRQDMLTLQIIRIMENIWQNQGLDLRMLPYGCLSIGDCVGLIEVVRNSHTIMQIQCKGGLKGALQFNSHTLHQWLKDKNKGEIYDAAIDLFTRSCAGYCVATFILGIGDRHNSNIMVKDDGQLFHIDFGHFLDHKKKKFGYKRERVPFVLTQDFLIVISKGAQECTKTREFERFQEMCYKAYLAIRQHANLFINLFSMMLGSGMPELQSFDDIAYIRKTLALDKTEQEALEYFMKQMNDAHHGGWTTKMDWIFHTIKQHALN
T1 sequence (P27986 whole entry partner): as the sequence (P27986 whole entry, further chain) above

SMILES	pIC50 (PI3Kα)	pIC50 (PI3Kδ)	pIC50 (PI3Kδ; [1])
CS(=O)(=O)N1CCN(Cc2cc3nc(-c4cccc5[nH]ccc45)cc(N4CCOCC4)n3n2)CC1 [Example 2, 5-(1H-indol-4-yl)-2-((4-(methyl-sulphonyl)piperazin-1-yl)methyl)-7-(morpholin-4-yl)pyrazolo[1,5-a]-pyrimidine]	< 6.00	6.00 to 7.00	–
CN1CCN(C2CCN(Cc3cc4nc(-c5cccc6[nH]ccc56)cc(N5CCOCC5)n4n3)CC2)CC1 [Example 3, 5-(1H-indol-4-yl)-2-((4-(4-methylpiperazin-1-yl)piperidin-1-yl)methyl)-7-(morpholin-4-yl)pyrazolo[1,5-a] pyrimidine]	< 6.00	> 7.00	–
COc1ccc(N2CCN(Cc3cc4nc(-c5cccc6[nH]ccc56)cc(N5CCOCC5)n4n3)CC2)cc1 [Example 6, 5-(1H-indol-4-yl)-2-((4-(4-methoxyphenyl)piperazin-1-yl)-methyl)-7-(morpholin-4-yl)-pyrazolo[1,5-a]pyrimidine]	< 6.00	6.00 to 7.00	–
CC(C)(C)N1CCN(Cc2cc3nc(-c4cccc5[nH]ncc45)cc(N4CCOCC4)n3n2)CC1 [Example 12, 2-((4-tert-butylpiperazin-1-yl)methyl)-5-(1H-indazol-4-yl)-7-(morpholin-4-yl)pyrazolo[1,5-a]-pyrimidine]	< 6.00	–	> 7.00
CN1CCN(C2CCN(Cc3cc4nc(-c5c(F)ccc6[nH]ccc56)cc(N5CCOCC5)n4n3)CC2)CC1 [Example 14, 5-(5-fluoro-1H-indol-4-yl)-2-((4-(4-methylpiperazin-1-yl)piperidin-1-yl)methyl)-7-(morpholin-4-yl)-pyrazolo[1,5-a]pyrimidine]	< 6.00	–	> 7.00
CC(C)(O)C1CCN(Cc2cc3nc(-c4cccc5[nH]ncc45)cc(N4CCOCC4)n3n2)CC1 [Example 15, 2-((4-(2-hydroxypropan-2-yl)-piperidin-1-yl)methyl)-5-(1H-indazol-4-yl)-7-(morpholin-4-yl)-pyrazolo[1,5-a]pyrimidine]	< 6.00	–	6.00 to 7.00
CC(C)(O)C1CCN(Cc2cc3nc(-c4cnc(N)nc4)cc(N4CCOCC4)n3n2)CC1 [Example 18, 5-(2-aminopyrimidin-5-yl)-2-((4-(2-hydroxypropan-2-yl)piperidin-1-yl)methyl)-7-(morpholin-4-yl)-pyrazolo[1,5-a]pyrimidine]	< 6.00	–	6.00 to 7.00
CN1CCN(Cc2cc3nc(-c4cccc5[nH]ccc45)cc(N4CCOCC4)n3n2)CC1 [Example 21, 5-(1H-indol-4-yl)-2-((4-methyl-piperazin-1-yl)methyl)-7-(morpholin-4-yl)pyrazolo[1,5-a]-pyrimidine]	< 6.00	6.00 to 7.00	–
O=S1(=O)CCN(Cc2cc3nc(-c4cccc5[nH]ccc45)cc(N4CCOCC4)n3n2)CC1 [Example 23, 2-((1,1-dioxothio-morpholin-1-yl)-methyl)-5-(1H-indol-4-yl)-7-(morpholin-4-yl)pyrazolo[1,5-a]-pyrimidine]	< 6.00	6.00 to 7.00	–
COC(=O)C1CCN(Cc2cc3nc(-c4cccc5[nH]ccc45)cc(N4CCOCC4)n3n2)CC1 [Example 24, Methyl 1-((5-(1H-indol-4-yl)-7-(morpholin-4-yl)pyrazolo[1,5-a]-pyrimidin-2-yl)methyl)piperidin-4-carboxylate]	< 6.00	6.00 to 7.00	–
c1cc(-c2cc(N3CCOCC3)n3nc(CN4CCN(CC5CC5)CC4)cc3n2)c2cc[nH]c2c1 [Example 26, 2-((4-(cyclopropylmethyl)piperazin-1-yl)methyl)-5-(1H-indol-4-yl)-7-(morpholin-4-yl)pyrazolo[1,5-a]-pyrimidine]	< 6.00	> 7.00	–
c1cc(-c2cc(N3CCOCC3)n3nc(CN4CCN(C5CCCC5)CC4)cc3n2)c2cc[nH]c2c1 [Example 27, 2-((4-cyclopentylpiperazin-1-yl)-methyl)-5-(1H-indol-4-yl)-7-(morpholin-4-yl)pyrazolo[1,5-a]-pyrimidine]	< 6.00	> 7.00	–
c1cc(-c2cc(N3CCOCC3)n3nc(CN4CCN(C5COC5)CC4)cc3n2)c2cc[nH]c2c1 [Example 34]	< 6.00	> 7.00	–
c1cc(-c2cc(N3CCOCC3)n3nc(CN4C[C@@H]5C[C@H]4CN5C4COC4)cc3n2)c2cc[nH]c2c1 [Example 36, 5-(1H-indol-4-yl)-2-(((1S, 4S)-2-(oxetan-3-yl)-2,5-diazabicyclo [2.2.1]hept-2-yl)methyl)-7-(morpholin-4-yl)pyrazolo[1,5-a]-pyrimidine]	< 6.00	> 7.00	–
O=C(Nc1ccccc1)NC1CCN(Cc2cc3nc(-c4cccc5[nH]ccc45)cc(N4CCOCC4)n3n2)CC1 [Example 37]	–	6.00 to 7.00	–
CCNC(=O)NC1CCN(Cc2cc3nc(-c4cccc5[nH]ccc45)cc(N4CCOCC4)n3n2)CC1 [Example 38]	< 6.00	6.00 to 7.00	–
CCc1nc2ccccc2n1-c1cc(N2CCOCC2)n2nc(CN3CCN(S(C)(=O)=O)CC3)cc2n1 [Example 42, 5-(2-ethylbenzimidazol-1-yl)-2-((4-(methylsulphonyl)piperazin-1-yl)methyl)-7-(morpholin-4-yl)-pyrazolo[1,5-a]pyrimidine]	< 6.00	–	6.00 to 7.00
CCc1nc2ccccc2n1-c1cc(N2CCOCC2)n2nc(CN3CCC(N(C)C)CC3)cc2n1 [Example 43, 5-(2-ethylbenzimidazo-1-yl)-2-((4-(dimethylamino)piperidin-1-yl)-methyl)-7-(morpholin-4-yl)-pyrazolo[1,5-a]pyrimidine]	< 6.00	–	6.00 to 7.00
CCc1nc2ccccc2n1-c1cc(N2CCOCC2)n2nc(CN3CCN(C(C)(C)C)CC3)cc2n1 [Example 47, 5-(2-ethylbenzimidazol-1-yl)-2-((4-tert-butylpiperazin-1-yl)methyl)-7-(morpholin-4-yl)pyrazolo[1,5-a]-pyrimidine]	< 6.00	–	> 7.00
Cc1nc2ccccc2n1-c1cc(N2CCOCC2)n2nc(CN3CCN(C(C)(C)C)CC3)cc2n1 [Example 48, 5-(2-methylbenzimidazol-1-yl)-2-((4-tert-butylopiperazin-1-yl)-methyl)-7-(morpholin-4-yl)-pyrazolo[1,5-a]pyrimidine]	< 6.00	–	6.00 to 7.00
Cc1nc2ccccc2n1-c1cc(N2CCOCC2)n2nc(CN3CCC(C(C)(C)O)CC3)cc2n1 [Example 49, 5-(2-methylbenzimidazol-1-yl)-2-((4-(2-hydroxypropan-2-yl)-piperidin-1-yl)methyl)-7-(morpholin-4-yl)pyrazolo[1,5-a]-pyrimidine]	< 6.00	–	6.00 to 7.00
CC(C)c1nc2ccccc2n1-c1cc(N2CCOCC2)n2nc(CN3CCN(C(C)(C)C)CC3)cc2n1 [Example 52, 5-(2-iso-propylbenzimidazol-1-yl)-2-((4-tert-butylpiperazin-1-yl)-methyl)-7-(morpholin-4-yl)-pyrazolo[1,5-a]pyrimidine]	< 6.00	–	6.00 to 7.00
CC(C)c1nc2ccccc2n1-c1cc(N2CCOCC2)n2nc(CN3CCC(C(C)(C)O)CC3)cc2n1 [Example 53, 5-(2-iso-propylbenzimidazol-1-yl)-2-((4-(2-hydroxypropan-2-yl)-piperidin-1-yl)methyl)-7-(morpholin-4-yl)pyrazolo[1,5-a]-pyrimidine]	< 6.00	–	6.00 to 7.00
CC(C)(C)N1CCN(Cc2cc3nc(-n4c(C5CC5)nc5ccccc54)cc(N4CCOCC4)n3n2)CC1 [Example 54, 5-(2-cyclopropylbenzimidazol-1-yl)-2-((4-tert-butylpiperazin-1-yl)-methyl)-7-(morpholin-4-yl)-pyrazolo[1,5-a]pyrimidine]	< 6.00	–	6.00 to 7.00
CC(C)(O)C1CCN(Cc2cc3nc(-n4c(C5CC5)nc5ccccc54)cc(N4CCOCC4)n3n2)CC1 [Example 55, 5-(2-cyclopropylbenzimidazol-1-yl)-2-((4-(2-hydroxypropan-2-yl)-piperidin-1-yl)methyl)-7-(morpholin-4-yl)pyrazolo[1,5-a]-pyrimidine]	< 6.00	–	6.00 to 7.00
C[C@@H]1CN(C2CN(Cc3cc4nc(-n5c(C(F)F)nc6ccccc65)cc(N5CCOCC5)n4n3)C2)C[C@H](C)O1 [Example 65, 5-(2-(difluoromethyl)benzimidazol-1-yl)-2-((3-((2R,6S)-2,6-dimethylmorpholin-4-yl)azetidin-1-yl)methyl)-7-(morpholin-4-yl)-pyrazolo[1,5-a]pyrimidine]	–	–	> 7.00
COC1CN(C2CN(Cc3cc4nc(-n5c(C(F)F)nc6ccccc65)cc(N5CCOCC5)n4n3)C2)C1 [Example 67, 5-(2-(difluoromethyl)benzimidazol-1-yl)-2-((3-(3-methoxyazetidin-1-yl)azetidin-1-yl)methyl)-7-(morpholin-4-yl)pyrazolo[1,5-a]-pyrimidine]	–	–	> 7.00
